# Measured values from patent US20090291910A1, “AGENT AND FOOD FOR PREVENTING/IMPROVING FUNCTIONAL DIGESTIVE DISORDER” (AJINOMOTO CO., INC, priority 2004, published 2009).
# Assays:
# [1] = system: stomach emptying; assay: gastric emptying rate, phenol red in 5% casein fluid diet; settings: oral in 5% casein fluid diet, 30 min; for stomach emptying rate: FIGS. 7A, 7B, 7C
# [2] = system: stomach emptying; assay: stomach emptying, glass beads distribution in stomach and small intestine; assay type: in vivo, SD rats; settings: 1% monosodium glutamate in 5% casein, 10 mL/kg oral; beads 1 hr later, autopsy 30 min later; N=5 vs N=4; FIG. 5
# Procedure: 7-to 9-week-old male SD rats were fasted overnight and applied to the experiment. A test diet was orally administered at a volume of 10 mL/kg and, 1 hr later, about 80 glass beads having a diameter of 1 mm were orally administered. The rats were autopsied 30 min later, and the number of beads present in the stomach and small intestine was counted. The small intestine was divided into 4, and named B1-B4 from the area near the stomach.
# [3] = system: NO release in the stomach mucous membrane; assay: NO release in the stomach mucous membrane during intragastric perfusion (NO electrode); assay type: in vivo, SD rat
# Procedure: SD rat was subjected to laparotomy with urethane anesthesia, a small incision was made in the anterior stomach and the small intestine, a 2 mm diameter polyethylene tube was inserted, and the perfusate was introduced and discharged with a Perista Pump. The perfusate was heated to 38° C. and the flow rate was 1 mL/min. The NO electrode was maintained under the lamina muscularis mucosae together with a temperature sensor, saline was perfused in the stomach for 2-3 hr, the released NO value was stabilized, and isotonic MSG solution (150 mM) was perfused during the time zone of 14:00-18:00.
# [4] = system: plasma 5HT and 5HIAA in portal blood; assay: leakage of serotonin and 5HIAA in the portal blood after intragastric administration; assay type: in vivo, SD rats; settings: 450 mM MSG 2 mL oral, 0-60 min
# Procedure: Male SD rats (8-week-old) were used. They were bred in a light-dark control room with a 7:00-19:00 light period. […] The catheter was filled with saline containing 10 unit/mL heparin to prevent hematological coagulation in the catheter. Saline and MSG 450 mM solution were each administered orally by 2 mL using an oral sonde. The blood was drawn every 10 min from 10 min before the administration to 60 min after the administration. To prevent unnecessary platelet activation, blood samples were collected with sufficient attention. […] To the separated plasma was rapidly added an equivalent amount of a mixture (adjusted to pH 2) of acetic acid and hydrochloric acid to eliminate protein. The serotonin (5-HT) amount and 5HIAA amount contained in the supernatant were analyzed by an electric chemical detector (ECD-100, manufactured by Accom Inc.). The analysis conditions were as follows.
# Using the aforementioned analysis method, serotonin and 5HIAA of stable metabolite thereof of the same sample were quantitated. […] Each was normalized based on the value at 0 min immediately after administration as 100%. The blood collection time immediately after 2 mL intragastric administration was taken as 0 min.
# [5] = system: vagus nerve afferent pathway; settings: cited from earlier work
compound,measurement,setting,value
lysine glutamic acid salt,stomach emptying rate,[1],promote stomach emptying
N[C@@H](CCC(=O)O)C(=O)O [glutamic acid],distribution of beads in stomach and small intestine versus control group,[2],tends to contain a smaller number of beads in the stomach and a large number of beads in the small intestine
arginine glutamic acid salt,comparison of stomach emptying effect with sodium salt,"[1]; FIGS. 6A, 6B",promotes stomach emptying from lower doses as compared to sodium salt
same,stomach emptying degree with the stomach emptying rate of the control group as 100,"[1]; FIGS. 6A, 6B",promoted stomach emptying
N[C@@H](CCC(=O)[O-])C(=O)[O-].[Ca+2] [calcium glutamate],stomach emptying rate,[1],promote stomach emptying
N[C@@H](CCC(=O)O)C(=O)[O-].[Na+] [monosodium glutamate],NO concentration in the stomach mucous membrane,"[3]; MSG (2.5%) perfusion, FIG. 3",confirmed to increase
same,latent time of increase in released NO,[3]; isotonic MSG (2.5%) perfused in the stomach,~15 min
same,cases with an increase in the released NO,"[3]; isotonic MSG (2.5%, 150 mM) perfused in the stomach",3 cases out of 20 cases
same,relative concentration of plasma 5HT in portal blood versus saline administration,[4]; FIG. 4A,no difference
same,relative concentration of plasma metabolite 5HIAA in portal blood versus saline administration,[4]; FIG. 4B,showed an increase beyond the increase by the saline administration group
same,activation of the vagus nerve afferent pathway,[5]; administration into the stomach and duodenum,activates the vagus nerve afferent pathway
same,activation of the vagus nerve,[5]; intravenous and intraportal administration,does not activate the vagus nerve
same,stomach emptying degree with the stomach emptying rate of the control group as 100,"[1]; FIGS. 6A, 6B",promoted stomach emptying
